Data on 18 compounds can be found in ChEMBL document CHEMBL5120766, “Recent insight into the biological activities and SAR of quinolone derivatives as multifunctional scaffold” (Bioorg Med Chem, 2022).

Molecules are shown by their SMILES. Converted amounts (≈) assume the structure as drawn. Where only a bound is given, the exact number is not on record here.

For one experiment, the target named is Cytochrome P450 3A4 (Homo sapiens, UniProt P08684). The experiment in a line: Inhibition of CYP3A4 in human liver microsomes using midazolam as substrate. The format is ADME, Microsome.
Chain of Cytochrome P450 3A4 (P08684 whole entry): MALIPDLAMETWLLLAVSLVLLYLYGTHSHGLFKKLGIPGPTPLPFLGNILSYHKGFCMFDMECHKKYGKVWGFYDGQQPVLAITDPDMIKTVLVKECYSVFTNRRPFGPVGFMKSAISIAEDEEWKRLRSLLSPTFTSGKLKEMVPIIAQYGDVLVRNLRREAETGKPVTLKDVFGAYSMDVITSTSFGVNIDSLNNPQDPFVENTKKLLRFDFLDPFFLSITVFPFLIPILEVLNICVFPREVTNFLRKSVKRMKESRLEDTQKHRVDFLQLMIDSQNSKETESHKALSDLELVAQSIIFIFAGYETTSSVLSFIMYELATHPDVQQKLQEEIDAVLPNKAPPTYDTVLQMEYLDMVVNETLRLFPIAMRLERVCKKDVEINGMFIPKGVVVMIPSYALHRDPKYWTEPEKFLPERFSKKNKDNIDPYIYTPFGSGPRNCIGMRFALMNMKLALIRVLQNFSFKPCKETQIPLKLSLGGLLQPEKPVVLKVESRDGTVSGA
Experiment [1] relates to Mycobacterium tuberculosis. The experiment in a line: Antimycobacterial activity against Mycobacterium tuberculosis H37Rv assessed as inhibition of bacterial growth measured after 7 days by alamar blue dye based microplate analysis. It is filed as functional. Particulars: 168 h, time 7 day. A general note: Alamar Blue is a resazurin reagent that responds to reducing activity.

Experiment [2] has as its system Escherichia coli. The experiment in a line: Antibacterial activity against Escherichia coli PTCC 1047 assessed as zone of inhibition incubated for 24 hrs by cup-plate agar diffusion method. It is filed as functional.
Experiment [3] concerns Bacillus subtilis. The experiment in a line: Antibacterial activity against Bacillus subtilis PTCC 1207 assessed as zone of inhibition incubated for 24 hrs by cup-plate agar diffusion method. The format is functional. (Agar diffusion results depend on both activity and mobility in agar.)
Experiment [4] relates to Pseudomonas aeruginosa. The experiment is described as follows: Antibacterial activity against Pseudomonas aeruginosa NCDC 105 assessed as zone of inhibition at 100 ug/ml by agar well diffusion method. It is filed as functional. The settings on record: read-out: DIZ.
The test system of experiment [5] is Pseudomonas aeruginosa. The experiment in a line: Antibacterial activity against Pseudomonas aeruginosa NCDC 105 assessed as zone of inhibition at 50 ug/ml by agar well diffusion method. The format is functional. The settings on record: read-out: DIZ.
Experiment [6] concerns Pseudomonas aeruginosa. The experiment in a line: Antibacterial activity against Pseudomonas aeruginosa NCDC 105 assessed as zone of inhibition at 10 ug/ml by agar well diffusion method. Particulars: read-out: DIZ. It is filed as functional.
The subject of experiment [7] is Human immunodeficiency virus 1. The experiment in a line: Antiviral activity against HIV1 A17 mutant infected in human C8166 cells. It is filed as functional, organism-based. Particulars: Human immunodeficiency virus 1, A17, C8166.
The test system of experiment [8] is Human immunodeficiency virus 1. The experiment is described as follows: Antiviral activity against wild type HIV1 infected in human C8166 cells. The format is functional, organism-based. Particulars: Human immunodeficiency virus 1, C8166.
The test system of experiment [9] is Escherichia coli. The experiment in a line: Antibacterial activity against Escherichia coli ATCC 8739 assessed as zone of inhibition by agar dilution method. The format is functional.
In experiment [10] the test system is Staphylococcus aureus. The experiment is described as follows: Antibacterial activity against Staphylococcus aureus ATCC 6538 assessed as zone of inhibition by agar dilution method. The format is functional. On the technique in general: In agar dilution the substance is mixed into plates at graded concentrations.
Experiment [11] deals with Human immunodeficiency virus 2. The experiment is described as follows: Antiviral activity against HIV2 infected in human MT4 cells by MTT assay. The settings on record: Human immunodeficiency virus 2, MT4. It is filed as functional, organism-based.
Experiment [12] relates to Human immunodeficiency virus 1. The experiment is described as follows: Antiviral activity against HIV1 infected in human MT4 cells by MTT assay. The format is functional, organism-based. The settings on record: Human immunodeficiency virus 1, MT4.
For experiment [13], the system named is Bacillus subtilis. The experiment is described as follows: Antibacterial activity against Bacillus subtilis ATCC 6633 incubated for 18 hrs by agar dilution method. The format is functional.
For experiment [14], the system named is Staphylococcus aureus. The experiment in a line: Antibacterial activity against Staphylococcus aureus ATCC 6538p incubated for 18 hrs by agar dilution method. It is filed as functional.
For experiment [15], the system named is Staphylococcus epidermidis. The experiment is described as follows: Antibacterial activity against Staphylococcus epidermidis ATCC 12228 incubated for 18 hrs by agar dilution method. It is filed as functional.
The test system of experiment [16] is Plasmodium falciparum. The experiment is described as follows: Antiplasmodial activity against chloroquine sensitive Plasmodium falciparum NF54 infected in human red blood cells assessed as reduction in [3H]-hypoxanthine incorporation pretreated for 48 hrs followed by [3H]-hypoxanthine addition measured after 24 hrs by scintillation counting method. It is filed as functional, organism-based.

In experiment [17] the test system is Plasmodium falciparum. The experiment in a line: Antiplasmodial activity against Plasmodium falciparum FCR-3 assessed as cell growth inhibition. It is filed as functional, organism-based.
The subject of a further experiment is Klebsiella pneumoniae. The experiment is described as follows: Antibacterial activity against Klebsiella pneumoniae ATCC 35657 incubated for 24 hrs by serial dilution method. The format is functional.
For experiment [18], the system named is Escherichia coli. The experiment in a line: Antibacterial activity against Escherichia coli ATCC 35218 incubated for 24 hrs by serial dilution method. The format is functional.
Experiment [19] relates to Mycobacterium tuberculosis. The experiment in a line: Antimycobacterial activity against Mycobacterium tuberculosis H37Rv assessed as inhibition of bacterial growth measured after 24 hrs by turbidity based analysis. It is filed as functional.
For another experiment, the system named is Bacteroides fragilis. The experiment is described as follows: Antibacterial activity against Bacteroides fragilis PA-2-II incubated for 18 hrs by microbroth dilution method. It is filed as functional.
A further experiment has as its system Clostridium perfringens. The experiment in a line: Antibacterial activity against Clostridium perfringens 22 incubated for 18 hrs by microbroth dilution method. It is filed as functional.
Experiment [20] has as its system Plasmodium falciparum. The experiment is described as follows: Antiplasmodial activity against Plasmodium falciparum 3D7 assessed as cell growth inhibition. The format is functional, organism-based.
In the next experiment the test system is A549. The experiment in a line: Antiproliferative activity against human A549 cells assessed as cell growth inhibition measured after 72 hrs by MTT assay. It is filed as functional, cell-based. Particulars: A549, 72 h.

What is called Ki is the dissociation constant of the complex between target and ligand, obtained from inhibition or displacement. Low values mean a stronger hold on the target, high ones a looser hold on the target. On Cytochrome P450 3A4, `COc1c(N2CC[C@@H](C3(N)CC3)C2)ccc2c(=O)c(C(=O)O)cn([C@@H]3C[C@@H]3F)c12` registered a Ki of 67900 nM. What is called MIC is the lowest concentration that inhibits growth of the organism. Regarding `COc1ccc(C(=O)N/N=C(/C)CCN2CCN(c3c(F)cc4c(=O)c(C(=O)O)cn(C5CC5)c4c3OC)CC2)cc1`, in experiment [1], the MIC amounted to 0.5 µM (≈ 0.29 µg/mL). On to `CCn1cc(C(=O)O)c(=O)c2cc(F)c(N3CCN(C/C(=N\OC)c4cc5cccc(OC)c5oc4=O)CC3)nc21`, for which the “diameter of the inhibition zone (DIZ)” value was determined as 35 mm in the experiment on Escherichia coli [2] and 39 mm in the experiment on Bacillus subtilis [3]. On to `O=C(O)c1cn(C2CC2)c2cc(N3CCN(CNc4nc5ccc([N+](=O)[O-])cc5s4)CC3)c(F)cc2c1=O`, for which the zone of inhibition at 100 µg/mL with Pseudomonas aeruginosa [4] worked out at 6.3 mm. Further, in the experiment on Pseudomonas aeruginosa [5], the zone of inhibition at 50 µg/mL was 5.5 mm. In addition, the zone of inhibition at 10 µg/mL in the experiment on Pseudomonas aeruginosa [6] was 3.5 mm. As a reminder, the EC50 is the concentration needed to bring the measured effect to its halfway point. High values mean lower potency in that assay, low ones higher potency in that assay. For the compound `CC(C)[C@@H](CO)n1cc(C(=O)O)c(=O)c2c(F)c(Cc3cccc(Cl)c3F)ccc21`, the EC50 in experiment [7] turned out to be 82 nM; in experiment [8] it was 32 nM. Take `O=C([O-])c1cn(CCn2cc(C(=O)[O-])c(=O)c3cc(F)c(N4CC5CCCNC5C4)c(F)c32)c2c(F)c(N3CC4CCCNC4C3)c(F)cc2c1=O.[Na+].[Na+]` (stereo unspecified): the “diameter of the inhibition zone (DIZ)” value was found to be 22 mm with Escherichia coli [9] and 15 mm with Staphylococcus aureus [10].

Turning to `CCn1cc(C(=O)O)c(=O)c2cc(F)c(N3CCN(CNc4nc5ccc(F)cc5s4)CC3)cc21`, the zone of inhibition at 100 µg/mL in the experiment on Pseudomonas aeruginosa [4] is 4.8 mm. The zone of inhibition at 50 µg/mL with Pseudomonas aeruginosa [5] was found to be 3.8 mm. Besides, the zone of inhibition at 10 µg/mL in the experiment on Pseudomonas aeruginosa [6] was found to be 3.3 mm. Regarding `Cn1cc(C(=O)O)c(=O)c2ccc(N3CCN(c4nc5ccccc5s4)CC3)nc21`, the EC50 was 40 nM in experiment [11] and 60 nM in experiment [12]. For `O=C(O)c1cn(-c2ccc(F)cc2)c2cc(N3CCN(C/C(=N\O)c4ccccc4)CC3)c(F)cc2c1=O`, the MIC (in the experiment with Bacillus subtilis [13]; in the experiment on Staphylococcus aureus [14]; in experiment [15]) was less than 0.125 µg/mL in each case. For orientation: IC50 means the concentration needed to halve the response being measured. As for `Cn1c(-c2ccc(CCCCCCCCCCN3CCCCC3)cc2)cc(=O)c2ccccc21`, the IC50 in the experiment on Plasmodium falciparum [16] was 820 nM. With `Cn1cc(C(=O)N/N=C\c2ccccn2)c(=O)c2cc(F)ccc21`, the half-maximal inhibitory concentration (IC50) in the experiment with Plasmodium falciparum [17] is 3300 nM. As for `O=C(NO)c1cn(C2CC2)c2cc(-n3cc(CN4CCOCC4)nn3)c(F)cc2c1=O`, the MIC against Klebsiella pneumoniae and in the experiment with Escherichia coli [18] was 4 µg/mL (≈ 9.34 µM) throughout. Take `CCn1cc(C(=O)O)c(=O)c2cc(F)c(N3CCN(CC(=O)Nc4nnc(-c5ccc(Cl)cc5Cl)s4)CC3)cc21`: the MIC in [19] stood at 8 µg/mL (≈ 13.2 µM).

`Cc1c(N2C[C@]3(N)CCC[C@]3(F)C2)c(F)cc2c(=O)c(C(=O)O)cn([C@@H]3C[C@@H]3F)c12.Cl.O.O`: the MIC with Bacteroides fragilis and against Clostridium perfringens was no more than 0.05 µg/mL throughout.

Take `Cn1c(-c2ccc(CCCCCCBr)cc2)cc(=O)c2ccccc21`: the IC50 with Plasmodium falciparum [16] amounted to 90 nM. As for `C[C@H]1[C@@H](OC(=O)c2cn(C3CC3)c3cc(N4CCNCC4)c(F)cc3c2=O)O[C@@H]2O[C@@]3(C)CC[C@H]4[C@H](C)CC[C@@H]1[C@@]24OO3`, the IC50 in the experiment on Plasmodium falciparum [20] was found to be 9.97 nM. With `N=C(NS(=O)(=O)c1ccccc1C(F)(F)F)N1CCN(c2cc3c(cc2F)c(=O)c(C(=O)O)cn3-c2ccc(F)cc2F)CC1`, in the experiment on A549, the IC50 came out at 9 nM. For the compound `CCn1cc(C(=O)O)c(=O)c2cc(F)c(N3CCN(C/C(=N\OC)c4cc5cccc(OC)c5oc4=O)CC3)cc21`, the “diameter of the inhibition zone (DIZ)” value with Escherichia coli [2] was 32 mm; in the experiment on Bacillus subtilis [3], 36 mm.
